Assays:
rat GnRH receptor = molecular target: T1, rat GnRH receptor (Rattus norvegicus, UniProt P30969); experiment: Radioligand binding, 125I-GnRH-A, rat pituitary membranes; set-up: membranes were prepared from rat pituitary; from tissue; host or cells: rat pituitary; details: read-out: rGnRH IC50
T1 sequence (P30969 1-327): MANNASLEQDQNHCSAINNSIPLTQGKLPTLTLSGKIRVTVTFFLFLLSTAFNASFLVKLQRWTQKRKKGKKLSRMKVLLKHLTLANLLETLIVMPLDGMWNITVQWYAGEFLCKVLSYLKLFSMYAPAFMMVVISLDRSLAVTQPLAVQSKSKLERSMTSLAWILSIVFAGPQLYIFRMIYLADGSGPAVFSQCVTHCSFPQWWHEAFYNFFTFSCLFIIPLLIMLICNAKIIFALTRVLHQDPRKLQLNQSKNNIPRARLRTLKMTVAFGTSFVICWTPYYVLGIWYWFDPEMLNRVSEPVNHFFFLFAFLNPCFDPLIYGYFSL
In short: (§1)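 Bound label captured on 0.1% polyethyleneimine-treated GF/C filters, washed three times with PBS, counted. IC50 derived; identical set-up for every species.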

mouse GnRH receptor = molecular target: T2, mouse GnRH receptor (Mus musculus, UniProt Q01776); experiment: Radioligand binding, 125I-GnRH-A, 293 cells expressing mouse GnRH receptors; details: read-out: mGnRH IC50
T2 construct: expressed in transfected cells; host or cells: 293 cells
T2 sequence (Q01776 1-327): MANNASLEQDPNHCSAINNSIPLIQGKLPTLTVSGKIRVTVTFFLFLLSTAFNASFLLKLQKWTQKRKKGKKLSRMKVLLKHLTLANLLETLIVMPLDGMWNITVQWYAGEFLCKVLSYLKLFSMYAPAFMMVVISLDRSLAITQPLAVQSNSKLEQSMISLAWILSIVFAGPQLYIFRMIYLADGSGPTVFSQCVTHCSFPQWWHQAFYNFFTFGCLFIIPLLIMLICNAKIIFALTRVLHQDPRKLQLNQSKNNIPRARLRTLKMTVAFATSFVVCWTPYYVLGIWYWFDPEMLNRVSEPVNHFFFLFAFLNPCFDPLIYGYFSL
In short: as §1

human GnRH receptor = molecular target: T3, human GnRH receptor (Homo sapiens, UniProt P30968); experiment: Radioligand binding, 125I-GnRH-A displacement, membranes of HEK 293 cells with human GnRH receptor; details: read-out: hGnRH IC50
T3 construct: expressed in transfected cells; host or cells: HEK 293 (hGnRH-R/293, from Dr. Stuart Sealfon)
T3 sequence (P30968 1-328): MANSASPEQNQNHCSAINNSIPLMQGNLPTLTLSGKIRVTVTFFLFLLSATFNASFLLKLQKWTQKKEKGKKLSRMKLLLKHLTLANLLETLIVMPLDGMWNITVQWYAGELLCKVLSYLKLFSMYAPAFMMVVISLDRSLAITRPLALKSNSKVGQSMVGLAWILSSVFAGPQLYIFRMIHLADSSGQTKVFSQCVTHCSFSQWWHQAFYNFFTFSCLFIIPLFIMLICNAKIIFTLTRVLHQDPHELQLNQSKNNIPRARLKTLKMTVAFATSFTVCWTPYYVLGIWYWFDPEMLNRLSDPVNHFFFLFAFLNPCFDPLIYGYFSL
In short: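 Bound tracer was separated by filtration through polyethyleneimine-soaked GF/C filters and counted by liquid scintillation. IC50 from curve fitting; other species were tested under the same conditions.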

hGnRH receptor = molecular target: T4, hGnRH receptor (Homo sapiens, UniProt P30968); experiment: Total inositol phosphates measurement, 293 cells containing the hGnRH receptor; format: cell-based; details: no species or readout annotated
T4 construct: expressed in transfected cells; host or cells: HEK 293 (hGnRH-R/293, from Dr. Stuart Sealfon)
T4 sequence (P30968 1-328): T3 sequence (P30968 1-328)
Experimental: To assess the activity of the compounds as agonists or antagonists, an assay measuring accumulation of total inositol phosphates was employed. 293 cells containing the hGnRH receptor were plated onto 24-well plates (approximately 200,000 cells/well) using DMEM media. […] The medium was aspirated and the cells rinsed with serum-free DMEM. The medium was aspirated and the cells were then treated with test compounds or vehicle for 30 minutes at 37° C. […] The media was replaced with ice-cold 10 mM formic acid, which stopped the reaction and also served to extract cellular lipids. Inositol phosphates were separated by ion-exchange chromatography on Dowex columns, which were washed with 2.5 mL of 10 mM myoinositol and 10 mM formic acid. The columns were then washed with 5 mL of 60 mM sodium formate and […], and total inositol phosphates were eluted with 5 mL 1M ammonium formate, 0.1 M formic acid. The column eluates were added to liquid scintillation vials containing 15 ml of scintillation cocktail and were counted by liquid scintillation counting.
This cell line was provided by Dr. Stuart Sealfon, Mount Sinai Medical School New York, N.Y. These cells were grown in DMEM supplemented with 0.2 g/L G418 100 U/ml penicillin/streptomycin and 10% FBS. Both GGH3 and hGnRH-R/293 cells were utilized for both for both total inositol phosphate measurement and for microphysiometry assessment of compound efficacy.

bovine GnRH receptor = molecular target: T5, bovine GnRH receptor (Bos taurus, UniProt P32236); experiment: Radioligand binding, 125I-GnRH-A, bovine pituitary membranes; details: read-out: bGnRH IC50
T5 construct: membranes were prepared from bovine pituitary; from tissue; host or cells: bovine pituitary
T5 sequence (P32236 1-328): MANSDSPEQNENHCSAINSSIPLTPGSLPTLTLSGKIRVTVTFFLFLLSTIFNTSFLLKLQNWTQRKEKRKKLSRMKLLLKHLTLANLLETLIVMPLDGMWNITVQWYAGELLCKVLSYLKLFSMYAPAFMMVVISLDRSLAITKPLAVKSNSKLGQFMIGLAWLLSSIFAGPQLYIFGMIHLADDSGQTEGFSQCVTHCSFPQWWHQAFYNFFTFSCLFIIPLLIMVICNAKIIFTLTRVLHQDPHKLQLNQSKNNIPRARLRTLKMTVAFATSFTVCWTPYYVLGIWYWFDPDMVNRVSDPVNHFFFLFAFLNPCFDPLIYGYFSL
Experimental: All compounds were diluted in 1% DMSO (final assay concentration) in binding assay buffer. […] Reactions were terminated by rapid filtration onto 96-well Packard GF/C filters soaked in 0.1% polyethyleneimine. Filters were washed three times with PBS buffer, dried and counted on a Packard Topcount by liquid scintillation counting.
Assay conditions were identical for assessing compound activities at other species. […] IC50 values for control peptides and test compounds were calculated utilizing GraphPad Prism™ software.
The reaction mixture was vortexed and incubated for 1 min at room temperature. After one min, the mixture was vortexed and allowed to incubate for an additional minute. 2 ml of 0.5 M acetic acid/1% BSA was added to the reaction tube and the mixture was added to a C18 Sep-Pak cartridge. The cartridge was washed with subsequent washes of 5 ml H2O and 5 ml 0.5M acetic acid and then eluted with 5×1 ml of 60% CH3CN/40% 0.5M acetic acid. The eluate was diluted with 3× volume of HPLC buffer A (0.1% TFA in H2O) and loaded onto a C18 column. […] The radioactive fractions (750 ed/fraction) are collected into clean polypropylene tubes containing 100 μl of 10% BSA. Fractions were assessed for biological activity by radioligand binding.

[1] = Metabolism rate, pmol/min/mg at 1 μM, human; format: in vitro ADME; details: 1 μM compound
[2] = Metabolism rate, pmol/min/mg at 1 μM, rat female; format: in vitro ADME; details: 1 μM compound
[3] = Metabolism rate, pmol/min/mg at 1 μM, rat male; format: in vitro ADME; details: 1 μM compound
[4] = Pharmacokinetic studies / bioavailability in rats; format: in vivo, rat; details: rat female; for Cmax / Tmax / half-life: female, rat, plasma; for Cmax / Tmax: po, 10 mg/kg, p.o. 10 mg/kg; for Cmax / Tmax / Fp.o.: 5 mg/ml solution in 10% DMSO 10% cremophor 80% saline
[5] = system: LH levels in castrated rats; experiment: Castrated male rat model, LH suppression; format: in vivo; details: 10 mg/kg iv
From the text: Experimental Protocol: Male Sprague-Dawley (225-250 g) rats were castrated and allowed 10 days postoperative recovery. Ten days post castration animals were instrumented with indwelling femoral venous and arterial catheters to facilitate remote infusions and blood sampling. On the day of the experiment, animals were allowed to acclimate to the procedure room while residing in their home cage. Basal blood samples were drawn from all animals. Following basal sampling, either vehicle (10% DMSO, 10% cremophor/saline), Antide (1.0 μg) or compound 11 (10 mg/kg) was administered intravenously. Blood samples were drawn 10, 60, 90, 120, 180, 240 minutes after injections. Blood was centrifuged, serum collected and stored in −70° freezer until assayed. Serum samples were analyzed using DSL-4600 ACTIVE LH coated-tube immunoradiometric assay kit from Diagnostic Systems Laboratories, Inc.
Surgical removal of the gonads removes circulating testosterone and eliminates the negative feedback of testosterone on the hypothalamus. […] This model seems suitable for evaluating small molecule GnRH antagonists.
Male Sprague-Dawley ([…]) rats were castrated via the scrotal approach under halothane anesthesia. Animals were allowed 14 days post operative recovery prior to study. Thirteen days following castration, animals were anesthetized with halothane and instrumented with indwelling jugular vein cannula. Details of the cannulation procedure have been described previously {Harms and Ojeda, 1974)}. On study day, animals were allowed to acclimate to the procedure room while residing in their home cage. Basal blood samples were drawn from all animals. Immediately following basal sampling, vehicle or test compounds were administered by various routes. The routes of administration employed were intravenous (iv), intramuscular (im), intraperitoneal (ip), subcutaneous (sc) and oral (po). Blood samples were drawn into heparin containing tubes at multiple time points post treatment. Blood was centrifuged immediately, plasma collected and stored in −20° freezer until assayed. Plasma samples were analyzed using DSL-4600 ACTIVE LH coated-tube immunoradiometric assay kit from Diagnostic Systems Laboratories, Inc.
Formulation #1 (denoted with superscript 1): 10% DMSO, 10% Cremophor EL and 80% physiological saline.
Formulation #2 (denoted with superscript 2): 10% Cremophor EL and 90% physiological saline.

Row | IC50 (rat GnRH receptor) [nM] | IC50 (mouse GnRH receptor) [nM] | IC50 (human GnRH receptor) [nM] | GnRH functional (hGnRH receptor) | IC50 (bovine GnRH receptor) [µM] | Human pmol/min/mg 1 μM [1] [pmol/min/mg] | Rat female pmol/min/mg 1 μM [2] [pmol/min/mg] | Rat male pmol/min/mg 1 μM [3] [pmol/min/mg] | Cmax [4] [nM] | Tmax [4] [h] | half-life [4] [min] | Fp.o. [4] | SMILES | % Max LH Suppression [5] [%] | time of % Max LH Suppression [5] [h]
1 | 11 | 9.2 | 15 | – | – | 116 | 223 | 528 | 340 | 1 | 180 | 41% (10 mg/kg)^10 | COc1cc(OC)c(NC(=O)c2ccc(Cc3cc4c(cc3C)OCCC4(C)C)o2)c(OC)c1 [Compound 221] | – | –
2 | 21 | 11 | 29 | – | – | 483 | 203 | 953 | 100 | 1 | 228 | 16% (10 mg/kg)^10 | COc1cc2c(cc1Cc1ccc(C(=O)Nc3c(OC)cc(OC)c(C#N)c3OC)o1)C(C)(C)CCC2(C)C [Compound 217] | – | –
3 | 78 | 65 | 110 | – | – | 115 | 167 | 575 | 810 | 1.5 | 192 | 54% (10 mg/kg)^10 | COc1cc(OC)c(NC(=O)c2ccc(Cc3c(C)ccc4c3OCCC4(C)C)o2)c(OC)c1 [Compound 222] | – | –
4 | 2130 | 720 | 240 | – | – | 369 | 173 | 990 | 420 | 1 to 5 | 276 | 34% (10 mg/kg)^10 | COc1cccc(OC)c1NC(=O)c1ccc(Cc2c(C)c(C)c(Br)c(C)c2C)o1 [Compound 226] | – | –
5 | 51 | 68 | 60 | – | – | 773 | 338 | 2988 | 340 | 1 | 84 | 34% (10 mg/kg)^10 | COc1cc(C)c(Cl)c(C)c1Cc1ccc(C(=O)Nc2c(OC)cccc2OC)o1 [Compound 233] | – | –

Continued, compound first:

Row | SMILES | IC50 (rat GnRH receptor) [nM] | IC50 (mouse GnRH receptor) [nM] | IC50 (human GnRH receptor) [nM] | GnRH functional (hGnRH receptor) | IC50 (bovine GnRH receptor) [µM] | Human pmol/min/mg 1 μM [1] [pmol/min/mg] | Rat female pmol/min/mg 1 μM [2] [pmol/min/mg] | Rat male pmol/min/mg 1 μM [3] [pmol/min/mg] | Cmax [4] [nM] | Tmax [4] [h] | half-life [4] [min] | Fp.o. [4] | % Max LH Suppression [5] [%] | time of % Max LH Suppression [5] [h]
6 | CCOC(=O)[C@H]1CC[C@H](CNC(=O)c2ccc(Cc3cc4c(cc3C)C(C)(C)CCC4(C)C)o2)CC1 [Compound 31] | 2800 | 1880 | 140 | Antag- onist | 8.9 | – | – | – | – | – | – | – | – | –
7 | COc1cc2c(cc1Cc1ccc(C(=O)NCc3cccc(CNc4ccnc(NC[C@H]5CCCO5)n4)c3)o1)C(C)(C)CCC2(C)C (stereo in doubt) [Compound 199] | 9.6 | 15 | 92 | – | – | 181 | 181 | 3387 | 80 | 4 | 90 | 10% (10 mg/kg)^10 | – | –
8 | COc1cccc(OC)c1NC(=O)c1ccc(Cc2cc(C(C)(C)C)ccc2C)o1 [Compound 206] | 23 | 83 | 52 | – | – | 689 | 330 | 1794 | – | – | – | – | 51 | 1
